The assay has as its system COS Cell. The experiment in a line: COS Cell IC50 (Cell-Based Assay). Conditions: procedure of WO 95/10516. How it is done:
FPT IC50 (inhibition of farnesyl protein transferase, in vitro enzyme assay) and COS Cell IC50 (Cell-Based Assay) were determined following the assay procedures described in WO 95/10516, published April 20, 1995. GGPT IC50 (inhibition of geranylgeranyl protein transferase, in vitro enzyme assay), Cell Mat Assay, and anti-tumor activity (in vivo anti-tumor studies) could be determined by the assay procedures described in WO 95/10516. The disclosure of WO 95/10516 is incorporated herein by reference thereto.

In general, IC50 refers to the concentration that gives 50% inhibition. A high value points to weaker potency. `NC(=O)N1CC[C@@H](CC(=O)N2CCC(C3c4ncc(Br)cc4CCc4cc(Cl)cc(Cl)c43)CC2)C1` (stereo partly drawn) [Example 2, 3(S) -[2-(4-(3-bromo-8,10-dichloro-6-11-dihydro-5-H-benzo[5,6]-cyclohepta[1,2-b]pyridin-11-yl)-1-piperidinyl]-2-oxoethyl]-1-pyrrolidinecarboxamide] registered an IC50 of 0.03 µM.

(Values after EP0927178B1, “TRICYCLIC COMPOUNDS USEFUL FOR INHIBITION OF G-PROTEIN FUNCTION AND FOR TREATMENT OF PROLIFERATIVE DISEASES” (SCHERING CORPORATION, priority 1996, dated 1998).)
